This note sets out measurements from patent US8012975B2, “Antitumoral analogs of ET-743” (Pharma Mar, S.A., priority 2000, dated 2011).

In one test the test system is HL60. The test is described as follows: cells. The following applies: Homo sapiens, HL-60, read-out: CYTOTOXIC ACTIVITY (M) HL60, leukemias & lymphomas, ALL Promyelocytic leukemia, line HL60.
For the next test, the system named is K562. As to the kind of experiment: cells. The following applies: Homo sapiens, K562, read-out: CYTOTOXIC ACTIVITY (M) K562.
A further test relates to H9. The test is described as follows: cells. The following applies: Homo sapiens, H9, read-out: CYTOTOXIC ACTIVITY (M) H9, leukemias & lymphomas, Lymphoma T-cell, line H9.
The next test relates to RAMOS. The test is described as follows: cells. The following applies: Homo sapiens, read-out: CYTOTOXIC ACTIVITY (M) RAMOS, leukemias & lymphomas, Lymphoma Burkitts B celll, line RAMOS.
A further test concerns Molt 3. As to the kind of experiment: Cytotoxic activity (M) panel, Acute lymphoblastic Molt 3. The conditions noted are these: Homo sapiens, MOLT-3, read-out: CYTOTOXIC ACTIVITY (M) Molt 3, leukemias & lymphomas, ALL Acute lymphoblastic, line Molt 3.
For a further test, the system named is Hut 78. As to the kind of experiment: Cytotoxic activity (M) panel, Lymphoma Cutaneus T cell Hut 78. The conditions noted are these: Homo sapiens, HuT78, read-out: CYTOTOXIC ACTIVITY (M) Hut 78, leukemias & lymphomas, Lymphoma Cutaneus T cell, line Hut 78.
The test system of another test is MC116. The test is described as follows: Cytotoxic activity (M) panel, Lymphoma undifferentiated MC116. The following applies: Homo sapiens, MC116, read-out: CYTOTOXIC ACTIVITY (M) MC116, leukemias & lymphomas, Lymphoma undifferentiated, line MC116.
Another test deals with 786-O. As to the kind of experiment: Cytotoxic activity (M) panel, Renal 786-O. The following applies: Homo sapiens, 786-0, read-out: CYTOTOXIC ACTIVITY (M) 786-O.
For another test, the system named is 5637. The test is described as follows: Cytotoxic activity (M) panel, Bladder 5637. The following applies: read-out: CYTOTOXIC ACTIVITY (M) 5637.
For another test, the system named is NCI-H187. As to the kind of experiment: Cytotoxic activity (M) panel, SCL NCI-H187. The following applies: Homo sapiens, NCI-H187, read-out: CYTOTOXIC ACTIVITY (M) NCI-H187.
A further test deals with SK-OV-3. The test is described as follows: Cytotoxic activity (M) panel, Ovary SK-OV-3. The following applies: Homo sapiens, SK-OV-3, read-out: CYTOTOXIC ACTIVITY (M) SK-OV-3.
The test system of the next test is FADU. As to the kind of experiment: Cytotoxic activity (M) panel, Pharnynx FADU. The conditions noted are these: Homo sapiens, read-out: CYTOTOXIC ACTIVITY (M) FADU.
The subject of a further test is Hs746t. The test is described as follows: Cytotoxic activity (M) panel, Gastric Hs746t. The conditions noted are these: Homo sapiens, read-out: CYTOTOXIC ACTIVITY (M) Hs746t.
A further test has as its system SK-HEP-1. The test is described as follows: Cytotoxic activity (M) panel, Liver SK-HEP-1. The conditions noted are these: Homo sapiens, SK-HEP1, read-out: CYTOTOXIC ACTIVITY (M) SK-HEP-1.
For the next test, the system named is LNCAP. The test is described as follows: Cytotoxic activity (M) panel, Prostate LNCAP. The conditions noted are these: Homo sapiens, read-out: CYTOTOXIC ACTIVITY (M) LNCAP.
In the next test the test system is PANC-1. As to the kind of experiment: Cytotoxic activity (M) panel, Pancreas PANC-1. The conditions noted are these: Homo sapiens, PANC-1, read-out: CYTOTOXIC ACTIVITY (M) PANC-1.
The test system of the next test is MEL-28. The test is described as follows: Cytotoxic activity (M) panel, Melanoma Mel-28. The following applies: Homo sapiens, SK-MEL-28, read-out: CYTOTOXIC ACTIVITY (M) Mel-28.
In the next test the test system is Y-79. As to the kind of experiment: Cytotoxic activity (M) panel, Retinoblastoma Y-79. The following applies: Homo sapiens, Y79, read-out: CYTOTOXIC ACTIVITY (M) Y-79.
Another test concerns CHSA. The test is described as follows: Cytotoxic activity (M) panel, Chondrosarcoma CHSA. The conditions noted are these: read-out: CYTOTOXIC ACTIVITY (M) CHSA.
Another test concerns OSA-FH. The test is described as follows: Cytotoxic activity (M) panel, Osteosarcoma OSA-FH. The conditions noted are these: read-out: CYTOTOXIC ACTIVITY (M) OSA-FH.
The next test concerns U-937. The test is described as follows: Cytotoxic activity (M) panel, Lymphoma Histiocytic U-937. The following applies: Homo sapiens, U-937, read-out: CYTOTOXIC ACTIVITY (M) U-937.
A further test has as its system MX-1. The test is described as follows: Cytotoxic activity (M) panel, Breast MX-1. The following applies: Homo sapiens, MX1, read-out: CYTOTOXIC ACTIVITY (M) MX-1.
Another test deals with HT-29. As to the kind of experiment: Cytotoxic activity (M) panel, Colon HT-29. The following applies: Homo sapiens, HT-29, read-out: CYTOTOXIC ACTIVITY (M) HT-29.
A further test deals with PC3. The test is described as follows: Cytotoxic activity (M) panel, Prostate PC3. The conditions noted are these: Homo sapiens, PC-3, read-out: CYTOTOXIC ACTIVITY (M) PC3.

Regarding `COc1c(C)cc2c(c1O)[C@@H]1C3Cc4c(OC(C)=O)c(C)c5c(c4[C@H](CNC(=O)[C@H](C)NC(=O)Cc4ccccc4)N3[C@@H](O)[C@H](C2)N1C)OCO5` (stereo partly drawn) [drawing 223], the IC50 in the test with HL60 was 1.23e-10 M; in the test with K562, 4.45e-08 M; with H9, 1.14e-08 M; in the test on RAMOS it was 8.85e-10 M; with Molt 3, 8.85e-10 M; in the test on Hut 78, 1.06e-08 M. For the same molecule, in the test on MC116, the IC50 came out at 1.41e-09 M.

On to `CCC(=O)NC[C@H]1c2c(c(OC(C)=O)c(C)c3c2OCO3)CC2[C@H]3c4c(cc(C)c(OC)c4O)C[C@@H]([C@H](O)N21)N3C` (stereo partly drawn) [drawing 227], for which the IC50 in the test on 786-O came to 2.27e-09 M; in the test with 5637 it was 9.91e-10 M; in the test with NCI-H187, 2.41e-11 M; in the test on SK-OV-3, 2.9e-08 M; with FADU, 3.05e-08 M; in the test with Hs746t, 1.36e-09 M. Further, the IC50 stood at 1.17e-09 M in the test on SK-HEP-1; 2.38e-08 M in the test with LNCAP; 1.37e-09 M in the test with PANC-1; 2.85e-09 M in the test on MEL-28; 3.08e-10 M in the test on Y-79; 1.63e-09 M in the test with CHSA. Moreover, the IC50 in the test with OSA-FH was found to be 4.37e-09 M.

On to `COc1c(C)cc2c(c1O)[C@@H]1C3Cc4c(OC(C)=O)c(C)c5c(c4[C@H](CNC(=O)/C=C/c4ccccc4)N3[C@@H](O)[C@H](C2)N1C)OCO5` (stereo partly drawn) [drawing 220], for which the IC50 turned out to be 5.66e-10 M in the test with Molt 3, 3.28e-11 M with U-937, 4.62e-09 M in the test with Hut 78 and 3.8e-09 M in the test on MC116.

In the case of `CCC(=O)N[C@@H](C)C(=O)NC[C@H]1c2c(c(OC(C)=O)c(C)c3c2OCO3)CC2[C@H]3c4c(cc(C)c(OC)c4O)C[C@@H]([C@H](O)N21)N3C` (stereo partly drawn) [drawing 228], the IC50 with MX-1 came to 1.92e-09 M; in the test with 786-O, 1.54e-08 M; in the test on 5637 it was 1.17e-09 M; in the test with NCI-H187, 9.89e-11 M; with FADU it was 4.38e-08 M; in the test with Hs746t it was 8.15e-09 M. For the same molecule, the IC50 stood at 6.21e-09 M with SK-HEP-1; 1.77e-08 M with LNCAP; 8.61e-09 M with PANC-1; 1.42e-08 M in the test with MEL-28; 7.45e-10 M with Y-79; 2.91e-08 M in the test on CHSA. In addition, the IC50 in the test with OSA-FH came out at 1.15e-08 M.

With `CCCC(=O)NC[C@H]1c2c(c(OC(C)=O)c(C)c3c2OCO3)CC2[C@H]3c4c(cc(C)c(OC)c4O)C[C@@H]([C@H](O)N21)N3C` (stereo partly drawn) [drawing 229], the IC50 in the test with Molt 3 was determined as 1.62e-09 M; in the test on U-937, 1.92e-09 M; with Hut 78, 7.33e-09 M; in the test with MC116 it was 1.62e-08 M.

Turning to `COc1c(C)cc2c(c1O)[C@@H]1C3Cc4c(OC(C)=O)c(C)c5c(c4[C@H](COC(=O)/C=C/c4cccc(C(F)(F)F)c4)N3[C@@H](O)[C@H](C2)N1C)OCO5` (stereo partly drawn) [drawing 237], the IC50 in the test with K562 is 1.56e-07 M; in the test on H9, 1.56e-07 M; in the test with RAMOS it was 8.86e-09 M; with Molt 3, 1.44e-08 M; with U-937, 7.6e-08 M; in the test on Hut 78, 6.47e-08 M. In addition, in the test on MC116, the IC50 is 1.69e-08 M.

`COc1c(C)cc2c(c1O)[C@@H]1C3Cc4c(OC(C)=O)c(C)c5c(c4[C@H](CNC(=O)Cc4ccccc4)N3[C@@H](O)[C@H](C2)N1C)OCO5` (stereo partly drawn) [drawing 224]: the IC50 with HL60 worked out at 3.97e-10 M; with RAMOS, 7.15e-09 M; in the test with Molt 3, 2.54e-09 M; with Hut 78, 7.46e-09 M; in the test with MC116, 1.13e-08 M.

For `COc1c(C)cc2c(c1O)[C@@H]1C3Cc4c(OC(C)=O)c(C)c5c(c4[C@H](CNC(=O)[C@H](C)NC(=O)CCc4ccccc4)N3[C@@H](O)[C@H](C2)N1C)OCO5` (stereo partly drawn) [drawing 215], the IC50 in the test with HT-29 came out at 7.43e-10 M; in the test on 786-O, 7.88e-10 M; in the test with 5637 it was 1.65e-10 M; with PC3, 8.13e-10 M; with FADU, 8.41e-10 M; with Hs746t, 9.35e-10 M. In addition, the IC50 worked out at 1.4e-09 M in the test on SK-HEP-1; 8.93e-10 M in the test on PANC-1; 1.08e-09 M in the test on MEL-28; 1.08e-09 M in the test with CHSA; 8.84e-10 M with OSA-FH.

With `CCCCCC(=O)NC[C@H]1c2c(c(OC(C)=O)c(C)c3c2OCO3)CC2[C@H]3c4c(cc(C)c(OC)c4O)C[C@@H]([C@H](O)N21)N3C` (stereo partly drawn) [drawing 230], the IC50 in the test with HL60 was 1.5e-08 M; in the test on K562 it was 6.89e-08 M; in the test on H9, 1.08e-08 M; in the test with RAMOS, 1.1e-09 M; with Molt 3, 3.87e-09 M; with U-937, 1.08e-09 M. For the same molecule, the results for the IC50 with Hut 78 and in the test with MC116 were 1.97e-09 M and 3.81e-09 M, respectively.

As to `COc1c(C)cc2c(c1O)[C@@H]1C3Cc4c(OC(C)=O)c(C)c5c(c4[C@H](CNC(=O)[C@H](C)NC(=O)C(F)(F)F)N3[C@@H](O)[C@H](C2)N1C)OCO5` (stereo partly drawn) [drawing 219], the IC50 in the test with Molt 3 worked out at 2.8e-09 M; in the test on U-937, 5.27e-11 M; in the test on Hut 78, 2.57e-10 M; in the test with MC116, 2.65e-10 M.

As to `CCCC(=O)OC[C@H]1c2c(c(OC(C)=O)c(C)c3c2OCO3)CC2[C@H]3c4c(cc(C)c(OC)c4O)C[C@@H]([C@H](O)N21)N3C` (stereo partly drawn) [drawing 240], the IC50 is 2.11e-08 M in the test with K562; 6.76e-08 M in the test with H9; 9.09e-09 M in the test on RAMOS; 4.63e-08 M in the test on Molt 3; 1.03e-08 M in the test on U-937; 2.06e-08 M in the test with Hut 78. Besides, the IC50 with MC116 is 1.51e-08 M.

For `COc1c(C)cc2c(c1O)[C@@H]1C3Cc4c(OC(C)=O)c(C)c5c(c4[C@H](CNC(=O)[C@H](C)NC(=O)CCc4ccccc4)N3[C@@H](O)[C@H](C2)N1C)OCO5` (stereo partly drawn) [drawing 222], the IC50 in the test on HL60 is 5.92e-09 M; with K562, 1.09e-08 M; in the test with H9 it was 4.48e-09 M; in the test on RAMOS, 5.26e-11 to 1.1e-10 M; in the test on Molt 3 it was 7.53e-12 M; with U-937 it was 5.15e-10 M. Further, the IC50 with Hut 78 came to 9.9e-10 M.

On to `COc1c(C)cc2c(c1O)[C@@H]1C3Cc4c(OC(C)=O)c(C)c5c(c4[C@H](CNC(=O)/C=C/c4cccc(C(F)(F)F)c4)N3[C@@H](O)[C@H](C2)N1C)OCO5` (stereo partly drawn) [drawing 218], for which the IC50 came to 6.13e-10 M in the test with Molt 3, 1.77e-10 M with U-937, 5.5e-11 M in the test on Hut 78 and 2.15e-10 M with MC116.

For the molecule `CCC(=O)NC[C@H]1c2c(c(OC(C)=O)c(C)c3c2OCO3)CC2[C@H]3c4c(cc(C)c(OC)c4O)C[C@@H]([C@H](O)N21)N3C` (stereo partly drawn) [drawing 231], the IC50 in the test on HL60 is 4.93e-10 M; in the test on K562, 1.87e-08 M; in the test on H9, 1.2e-08 M; with Molt 3 it was 9.86e-10 M; with MC116, 1.04e-09 M.
